From the supplement of paper PMC11061612 come the findings set out here.

Holding throughout (assay): combination Emax (second highest fraction inhibited in the dose matrix, 72 h); higher = more inhibition; extreme values may be limits of the assay
Experiment [1] relates to LS-123 (Colorectal Carcinoma). The gist of the method:
(§1)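 After 24 hours at 37°C and 5% CO2 in 1536-well plates, cells in DMEM/F12 or RPMI plus 10% FBS received two-drug dose matrices for 72 hours. Viability came from CellTiter-Glo 2.0 luminescence and was scaled as inhibition, anchored at 0 by vehicle wells and at 1 by blank wells. Combination Emax is taken as the second-highest inhibition in the matrix, and Bliss excess as the observed combination effect less EA + EB − EA·EB, with EA and EB the single-agent effects.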

The test system of experiment [2] is KMRC-20 (Kidney Carcinoma). The essentials: as §1
The test system of experiment [3] is LOXIMVI (Melanoma). The gist of the method:
as §1

The test system of experiment [4] is FTC-133 (Thyroid Gland Carcinoma). The gist of the method:
as §1

In experiment [5] the test system is HeLa (Cervical Carcinoma). The essentials: as §1
In experiment [6] the test system is LCLC-97TM1 (Non-Small Cell Lung Carcinoma). The gist of the method:
as §1

Experiment [7] concerns EW-11 (Ewing's Sarcoma). The gist of the method: as §1
Experiment [8] relates to NCI-H2722 (Mesothelioma). The gist of the method: as §1
Experiment [9] has as its system SW1710 (Bladder Carcinoma). The essentials:
as §1

In experiment [10] the test system is CAL-72 (Osteosarcoma). The essentials:
as §1

The test system of experiment [11] is SNU-449 (Hepatocellular Carcinoma). The gist of the method:
as §1

The test system of experiment [12] is NCI-H1568 (Lung Adenocarcinoma). The gist of the method:
as §1

The test system of experiment [13] is SAS (Oral Cavity Carcinoma). The gist of the method:
as §1

Experiment [14] deals with KS-1 (Glioblastoma). The essentials:
as §1

Experiment [15] relates to SW1573 (Lung Adenocarcinoma). The gist of the method:
as §1

The test system of experiment [16] is CAL-33 (Oral Cavity Carcinoma). The essentials: as §1
The test system of experiment [17] is HuCCT1 (Biliary Tract Carcinoma). The essentials: as §1
For experiment [18], the system named is LNZTA3WT4 (Low Grade Glioma). The essentials:
as §1

Experiment [19] deals with KYAE-1 (Esophageal Adenocarcinoma). The gist of the method: as §1
In experiment [20] the test system is OVCAR-5 (Ovarian Carcinoma). The gist of the method:
as §1

On to `COc1cc2ncnc(Nc3ccc(F)c(Cl)c3)c2cc1OCCCN1CCOCC1` [Gefitinib] + CC(C)n1c(=O)n(C)c2cnc3cc(F)c(-c4ccc(OCCCN5CCCCC5)nc4)cc3c21 [AZD1390] (first compound max 10 µM, 7x7, partner max 0.3 µM), for which the “combination Emax” value was found to be 0.226 in experiment [1]; 0.173 in experiment [2]; 0.32 in experiment [3]; 0.0388 in experiment [4]; 0.0627 in [5]; 0.0902 in experiment [6]. In addition, the “combination Emax” value in [7] was 0.171; in experiment [8], 0.0368; in [9], 0.228; in [10], 0.109; in experiment [11], 0.249; in [12], 0.318. Also, the “combination Emax” value in [13] turned out to be 0.401; in experiment [14] it was 0.0732; in experiment [15], 0; in experiment [16], 0.42; in experiment [17], 0.389; in [18] it was 0.129. Further, the “combination Emax” value in experiment [19] is 0.646; in experiment [20] it was 0.203.

As for `Cc1cc2ncnn2cc1Nc1ncc2c(n1)n(C1CCOCC1)c(=O)n2C` [AZD7648] + CCN(CCO)CCCOc1ccc2c(Nc3cc(CC(=O)Nc4cccc(F)c4)[nH]n3)ncnc2c1 [AZD2811] (first compound max 10 µM, 7x7, partner max 1 µM), the “combination Emax” value in experiment [1] is 0.309; in experiment [2], 0.275; in experiment [3] it was 0.449; in experiment [4] it was 0.354; in [5] it was 0.285; in experiment [6] it was 0.44. The “combination Emax” value in experiment [7] came to 0.507; in experiment [8] it was 0.291; in experiment [9], 0.202; in [10], 0.436; in experiment [11], 0.318; in experiment [12], 0.185. Also, the “combination Emax” value was found to be 0.255 in [13]; 0.4 in experiment [14]; 0.287 in experiment [15]; 0.913 in [16]; 0.406 in [17]; 0.266 in experiment [18]. Moreover, the figures for the “combination Emax” value in [19] and in experiment [20] were 0.207 and 0.262, respectively.

With `C[C@@H](c1ccc2nccn2c1)n1nnc2ncc(-c3cnn(C)c3)nc21` [Savolitinib] + Cc1c2c(nn1C)CSCc1cc(n(C)n1)CSc1cc(c3ccccc3c1)OCCCc1c(C(=O)O)n(C)c3c-2c(Cl)ccc13 [AZD5991] (first compound max 1 µM, 7x7, partner max 1 µM), the “combination Emax” value was 0.211 in [1]; 0.195 in experiment [2]; 0.228 in experiment [3]; 0.176 in [4]; 0.362 in experiment [5]; 0.147 in experiment [6]. The “combination Emax” value in experiment [7] was 0.491; in experiment [8], 0.2; in experiment [9], 0.105; in experiment [10], 0.189; in experiment [11] it was 0.154; in [12] it was 0.147. Further, the “combination Emax” value is 0.151 in [13]; 0.132 in experiment [14]; 0.133 in [15]; 0.181 in experiment [16]; 0.117 in [17]; 0.222 in experiment [18]. Also, the “combination Emax” value in experiment [19] and in experiment [20] was 0.137 each time.

Consider `Cc1cc2ncnn2cc1Nc1ncc2c(n1)n(C1CCOCC1)c(=O)n2C` [AZD7648] + C[C@@H]1COCCN1C2=NC(=NC(=C2)C3(CC3)[S@](=N)(=O)C)C4=C5C=CNC5=NC=C4 [AZD6738] (first compound max 10 µM, 7x7, partner max 10 µM), for which the “combination Emax” value is 0.619 in experiment [1]; 0.425 in [2]; 0.768 in experiment [3]; 0.677 in experiment [4]; 0.575 in experiment [5]; 0.84 in experiment [6]. The “combination Emax” value in experiment [7] stood at 0.748; in experiment [8], 0.347; in [9], 0.503; in [10], 0.788; in experiment [11] it was 0.279; in experiment [12], 0.499. For the same compound, the “combination Emax” value came to 0.856 in experiment [13]; 0.595 in experiment [14]; 0.229 in experiment [15]; 0.793 in experiment [16]; 0.735 in experiment [17]; 0.766 in [18]. The “combination Emax” value in experiment [19] was 0.204; in [20] it was 0.757.

Regarding `COc1cc2c(cc1OCCCCCOc1cc3c(cc1OC)C(=O)N1C=C(C)C[C@H]1C=N3)N=C[C@@H]1CC(C)=CN1C2=O` [SG3199] + O=C(c1cc(Cc2n[nH]c(=O)c3ccccc23)ccc1F)N1CCN(C(=O)C2CC2)CC1 [Olaparib] (first compound max 0.001 µM, 7x7, partner max 10 µM), the “combination Emax” value in experiment [1] stood at 0.187; in experiment [2] it was 0.128; in experiment [3], 0.187; in experiment [4], 0.134; in experiment [5], 0.159; in [6], 0.12. Further, the “combination Emax” value in [7] stood at 0.582; in experiment [8] it was 0.134; in [9], 0.112; in experiment [10] it was 0.23; in experiment [11], 0.0573; in experiment [12] it was 0.191. Further, the “combination Emax” value in experiment [13] was 0.164; in experiment [14], 0.127; in experiment [15], 0.102; in experiment [16] it was 0.143; in [17], 0.0094; in experiment [18] it was 0.0132. The “combination Emax” value was found to be 0.128 in experiment [19] and 0.0819 in experiment [20].

On to `Cc1cc2ncnn2cc1Nc1ncc2c(n1)n(C1CCOCC1)c(=O)n2C` [AZD7648] + CN(C)CCCOc1ccc(-c2ccc3ncc4c(c3c2)n(C2CCOCC2)c(=O)n4C)cn1 [AZD0156] (first compound max 10 µM, 7x7, partner max 1 µM), for which the “combination Emax” value in experiment [1] is 0.34; in experiment [2], 0.201; in experiment [3], 0.478; in experiment [4], 0.241; in experiment [5], 0.204; in experiment [6], 0.159. Besides, the “combination Emax” value in experiment [7] amounted to 0.549; in experiment [8], 0.209; in experiment [9], 0.217; in experiment [10], 0.399; in experiment [11], 0.282; in experiment [12] it was 0.24. Besides, the “combination Emax” value is 0.307 in experiment [13]; 0.245 in experiment [14]; 0.164 in [15]; 0.375 in experiment [16]; 0.389 in [17]; 0.276 in experiment [18]. Also, the “combination Emax” value turned out to be 0.121 in experiment [19] and 0.287 in experiment [20].
